We go through seven compounds from patent US20250176546A1, “ANTIMICROBIAL CaNCR PEPTIDE VARIANTS” (Donald Danforth Plant Science Center, priority 2022, published 2025).

Values after ≈ are worked out from the molar mass of the structure shown. Where two headings read alike, the source gives them in different places. Peptide text beside a SMILES is read from it.

For one assay, the system named is Botrytis cinerea. Description: Antifungal 96-well plate assay with resazurin cell viability readout. The note with it: chemically synthesized peptides; 2-fold dilution series; 48 h incubation, then resazurin overnight; lowest concentration with no change in blue color. It counts as cell-based. The method, then: Antifungal activity of NCR13_AlaV1-V5 was assessed at different concentrations using a 2-fold dilution series of each peptide. Antifungal activity of each peptide was determined spectrophotometrically using the 96-well plate assay. Around 45 μL of each peptide at different concentrations was added to each well of the microtiter plate containing 45 μL of ˜[…] spore suspension. The quantitative fungal growth inhibition was determined by measuring the absorbance at 595 nm using a (Tecan Infinite M200 ProTecan Systems Inc., San Jose, CA) microplate reader after 48 h. The fungal cell viability was determined by the resazurin cell viability assay. After incubation of the pathogen/peptide mixture for 48 h, 10 μl of 0.1% resazurin solution was added to each well. After incubation of the mixture overnight, a change in the color of the resazurin dye from blue to pink or colorless indicated the presence of live fungal cells. The MIC for each peptide was the lowest concentration of each peptide at which no change in blue color occurred.
For orientation: Resazurin is reduced to fluorescent resorufin, in cell work by metabolically active cells.

In assay [1] the test system is Tricophyton rubrum (36381). The assay is described as follows: In vitro antifungal activity (spectrophotometric) against human fungal pathogens. The note with it: Pichia pastoris-expressed peptide, half-strength potato dextrose broth.
Procedure: (§1) The in vitro antifungal activity of these peptides was determined spectrophotometrically as described in previous publications (Sagaram et al. 2013: Islam et al. 2017) in half-strength potato dextrose broth.
Assay [2] relates to Tricophyton metagrophytes (26103). The description is as above. The following applies: Pichia pastoris-expressed peptide, half-strength potato dextrose broth.
Procedure: as §1
Another assay relates to Candida glabrata (38827). The description is as above. The note with it: Pichia pastoris-expressed peptide, half-strength potato dextrose broth.
In the next assay the test system is Candida auris (38883). The description is as above. The note with it: Pichia pastoris-expressed peptide, half-strength potato dextrose broth.
In the next assay the test system is Candida albicans (33795). The assay is described as above. The following applies: Pichia pastoris-expressed peptide, half-strength potato dextrose broth.

For orientation: MIC means the least concentration at which growth counts as inhibited. Lower therefore signals greater potency.

Procedure for Candida albicans (33795): as §1
Procedure for Candida auris (38883): as §1
Procedure for Candida glabrata (38827): as §1

On to “TKPCQSDKDCAAAACRKPKVPKCINGFCKCVR (SEQ ID NO: 42) [NCR13_AlaV2]”, for which, in the assay on Botrytis cinerea, the “MIC (μM) Botrytis cinerea” value is reported as “Inactive”. Also, the “MIC (μM) Fusarium graminearum” value against Fusarium graminearum is given as “Inactive”.
As to “CaNCR13: Wild-type nodule specific cysteine rich peptide from chickpea, SEQ ID NO: 1, expressed in Pichia pastoris and purified by FPLC and HPLC (TKPCQSDKDCKKFACRKPKVPKCINGFCKCVR; listed as Cicer arietinum)”, the “MIC” value was 3.2 µM in assay [1]; 0.41 µM in assay [2]; 0.41 µM with Candida glabrata (38827); 6.4 µM with Candida auris (38883); 3.2 µM against Candida albicans (33795).
Take `CC[C@H](C)[C@H](NC(=O)[C@H](CS)NC(=O)[C@H](CCCCN)NC(=O)[C@@H]1CCCN1C(=O)[C@@H](NC(=O)[C@H](CCCCN)NC(=O)[C@@H]1CCCN1C(=O)[C@H](CCCCN)NC(=O)[C@H](CCCNC(=N)N)NC(=O)[C@H](CS)NC(=O)[C@H](C)NC(=O)[C@H](Cc1ccccc1)NC(=O)[C@H](CCCCN)NC(=O)[C@H](CCCCN)NC(=O)[C@H](CS)NC(=O)[C@H](CC(=O)O)NC(=O)[C@H](CCCCN)NC(=O)[C@H](CC(=O)O)NC(=O)[C@H](CO)NC(=O)[C@H](CCC(N)=O)NC(=O)[C@H](CS)NC(=O)[C@@H]1CCCN1C(=O)[C@H](CCCCN)NC(=O)[C@@H](N)[C@@H](C)O)C(C)C)C(=O)N[C@@H](CC(N)=O)C(=O)NCC(=O)N[C@@H](Cc1ccccc1)C(=O)N[C@@H](CS)C(=O)N[C@@H](CCCCN)C(=O)N[C@@H](CS)C(=O)N[C@H](C(=O)N[C@@H](CCCNC(=N)N)C(=O)O)C(C)C` [NCR13, reference compound] (H-TKPCQSDKDCKKFACRKPKVPKCINGFCKCVR-OH; N-terminus and C-terminus assumed): the “MIC (μM) Fusarium graminearum” value against Fusarium graminearum (48 h) was 6 µM (≈ 22 µg/mL).
`CC(C)[C@H](NC(=O)[C@H](CS)NC(=O)[C@H](CCCCN)NC(=O)[C@H](CS)NC(=O)[C@H](C)NC(=O)[C@H](C)NC(=O)[C@H](C)NC(=O)[C@H](C)NC(=O)[C@H](CS)NC(=O)[C@H](CCCCN)NC(=O)[C@@H]1CCCN1C(=O)[C@@H](NC(=O)[C@H](CCCCN)NC(=O)[C@@H]1CCCN1C(=O)[C@H](CCCCN)NC(=O)[C@H](CCCNC(=N)N)NC(=O)[C@H](CS)NC(=O)[C@H](C)NC(=O)[C@H](Cc1ccccc1)NC(=O)[C@H](CCCCN)NC(=O)[C@H](CCCCN)NC(=O)[C@H](CS)NC(=O)[C@H](CC(=O)O)NC(=O)[C@H](CCCCN)NC(=O)[C@H](CC(=O)O)NC(=O)[C@H](CO)NC(=O)[C@H](CCC(N)=O)NC(=O)[C@H](CS)NC(=O)[C@@H]1CCCN1C(=O)[C@H](CCCCN)NC(=O)[C@@H](N)[C@@H](C)O)C(C)C)C(=O)N[C@@H](CCCNC(=N)N)C(=O)O` [NCR13_AlaV5] (H-TKPCQSDKDCKKFACRKPKVPKCAAAACKCVR-OH; N-terminus and C-terminus assumed): in the assay with Fusarium graminearum (48 h), the “MIC (μM) Fusarium graminearum” value was found to be 6 µM (≈ 21.1 µg/mL).
As to `CC[C@H](C)[C@H](NC(=O)[C@H](CS)NC(=O)[C@H](CCCCN)NC(=O)[C@@H]1CCCN1C(=O)[C@@H](NC(=O)[C@H](CCCCN)NC(=O)[C@@H]1CCCN1C(=O)[C@H](CCCCN)NC(=O)[C@H](CCCNC(=N)N)NC(=O)[C@H](CS)NC(=O)[C@H](C)NC(=O)[C@H](Cc1ccccc1)NC(=O)[C@H](CCCCN)NC(=O)[C@H](CCCCN)NC(=O)[C@H](CS)NC(=O)[C@H](C)NC(=O)[C@H](C)NC(=O)[C@H](C)NC(=O)[C@H](C)NC(=O)[C@H](C)NC(=O)[C@H](CS)NC(=O)[C@@H]1CCCN1C(=O)[C@H](CCCCN)NC(=O)[C@@H](N)[C@@H](C)O)C(C)C)C(=O)N[C@@H](CC(N)=O)C(=O)NCC(=O)N[C@@H](Cc1ccccc1)C(=O)N[C@@H](CS)C(=O)N[C@@H](CCCCN)C(=O)N[C@@H](CS)C(=O)N[C@H](C(=O)N[C@@H](CCCNC(=N)N)C(=O)O)C(C)C` [NCR13_AlaV1] (H-TKPCAAAAACKKFACRKPKVPKCINGFCKCVR-OH; N-terminus and C-terminus assumed), in the assay with Fusarium graminearum (48 h), the “MIC (μM) Fusarium graminearum” value turned out to be 6 µM (≈ 20.7 µg/mL).
As to “TKPCQSDKDCKKFACAAAAVPKCINGFCKCVR (SEQ ID NO: 43) [NCR13_AlaV3]”, the “MIC (μM) Botrytis cinerea” value against Botrytis cinerea is listed as “Inactive”. In addition, in the assay with Fusarium graminearum, the “MIC (μM) Fusarium graminearum” value is “Inactive”.
Consider `CC[C@H](C)[C@H](NC(=O)[C@H](CS)NC(=O)[C@H](C)NC(=O)[C@H](C)NC(=O)[C@H](C)NC(=O)[C@H](CCCCN)NC(=O)[C@@H]1CCCN1C(=O)[C@H](CCCCN)NC(=O)[C@H](CCCNC(=N)N)NC(=O)[C@H](CS)NC(=O)[C@H](C)NC(=O)[C@H](Cc1ccccc1)NC(=O)[C@H](CCCCN)NC(=O)[C@H](CCCCN)NC(=O)[C@H](CS)NC(=O)[C@H](CC(=O)O)NC(=O)[C@H](CCCCN)NC(=O)[C@H](CC(=O)O)NC(=O)[C@H](CO)NC(=O)[C@H](CCC(N)=O)NC(=O)[C@H](CS)NC(=O)[C@@H]1CCCN1C(=O)[C@H](CCCCN)NC(=O)[C@@H](N)[C@@H](C)O)C(=O)N[C@@H](CC(N)=O)C(=O)NCC(=O)N[C@@H](Cc1ccccc1)C(=O)N[C@@H](CS)C(=O)N[C@@H](CCCCN)C(=O)N[C@@H](CS)C(=O)N[C@H](C(=O)N[C@@H](CCCNC(=N)N)C(=O)O)C(C)C` [NCR13_AlaV4] (H-TKPCQSDKDCKKFACRKPKAAACINGFCKCVR-OH; N-terminus and C-terminus assumed), for which the “MIC (μM) Botrytis cinerea” value with Botrytis cinerea is “Inactive”. Also, the “MIC (μM) Fusarium graminearum” value against Fusarium graminearum (48 h) came out at 12 µM (≈ 42.6 µg/mL).
